This note sets out measurements from US20220089616A1, “CARBORANE-BASED HISTONE DEACETYLASE (HDAC) INHIBITORS” (The Regents of the University of California, priority 2018, published 2022).

This series concerns primary mouse NPCs. Description: TUNEL assay, mouse NPCs. Type of series: cell-based. The settings on record: 40 μM. As for the experimental part: Primary neural progenitor cells (NPCs) were a gift from Dr. Harley Kornblum (University of California Los Angeles). The cells were collected from embryonic day 14 (E14) mouse brain according to procedures approved by the UCLA Chancellor's Committee for Animal Research. The following supplements were added to the Neurobasal media: 1:50 B27, 1:100 Pen-Strep, 2 mM 1-glutamine (all from GIBCO/BRL), 2 μg/ml heparin (Sigma), and 20 ng/ml FGF2 (PeproTech). Cells were incubated at 37° C. in the presence of 5% CO2. Additional FGF2 was added every third day, and cultures were passaged every 7 days. During each passage, spheres were enzymatically and mechanically dissociated with Accumax (Sigma).
Click-iT® Plus TUNEL Assay (Molecular Probes Life Technologies, Catalog #: C10617)
Primary mouse NPCs were passaged and counted as previously described. Cells without treatment were used as a negative control, DNaseI (Cat. no. 18068-015) was used to generate a positive control, and 10 μL of inhibitor solutions were used at varying concentrations. A 24-well plate was prepped with 12 mm circle glass coverslips in the wells. Coverslips were coated with poly-L-lysine followed by laminin prior to plating the cells. […]

Take `CN(Cc1ccc(/C=C/C(=O)NO)cc1)CC12CC3CC(CC(C3)C1)C2` [Martinostat]: the “toxicity by average cell population count of confocal images” value (5 positions) is given as “higher toxicity”. Besides, the TUNEL positive cells result (FIG. 11A) is given as “perceived elevation”.
